Measured values published in paper PMC6104039 (Nature Communications, 2018).

Tests used:
murine CerS1 = molecular target: T1, murine CerS1 (Mus musculus, UniProt P27545); test: Ceramide synthase assay, NBD-dihydrosphingosine, C18:0-CoA; COS cells expressing murine CerS1; type: biochemical; conditions: inhibitor range 10 nM–100 μM; read-out: IC50 mCerS1
T1 construct: expressed in transfected cells; host or cells: COS cells (lentiviral infection)
Procedure: Ceramide synthase assays were carried out using an HPLC-based assay with a fluorescent NBD-dihydrosphingosine substrate. All cell lines used for these assays were originally sourced from ATCC. […] Human CerS expression plasmids (pCMV6 plasmids from Origene) were transfected using FuGene-6 transfection reagent, and cells were harvested 24 h after transfection in 20 mM Hepes pH 7.4, 10 mM KCl, 1 mM dithiothreitol, 3 mM β-glycerophosphate, and EDTA-free complete protease inhibitor cocktail (Roche). Cells were sonicated in a Diagenode Bioruptor sonicating bath for 5 min, after which cell extracts were cleared by centrifugation at 800 × g for 10 min. Protein concentration in the supernatant was assayed using the bicinchoninic acid (BCA) assay, and the supernatant stored at −80 °C. COS cells were infected with lentiviral constructs expressing murine CerS1, 2, or 5, then homogenised as described above.
(§1) The reaction buffer consisted of 20 mM Hepes pH 7.4, 25 mM KCl, 2 mM MgCl2, 0.5 mM dithiothreitol, 0.1% fatty acid free BSA, 10 μM NBD-dihydrosphingosine and 50 μM fatty acid free BSA. […] The reaction mixture was transferred to a glass HPLC vial with 300 μL fused glass insert (Thermo Fisher Scientific) and NBD-dihydroceramide reaction products were analysed on a Thermo Scientific Surveyor HPLC connected to a Shimadzu RF-10AXL fluorescent detector (set to gain of 3). […]

murine CerS2 = murine CerS2 (Mus musculus, UniProt Q924Z4); test: Ceramide synthase assay, NBD-dihydrosphingosine, C24:1-CoA; COS cells expressing murine CerS2; type: biochemical; conditions: inhibitor range 10 nM–100 μM; read-out: IC50 mCerS2
Sequence of murine CerS2 (Q924Z4 whole entry): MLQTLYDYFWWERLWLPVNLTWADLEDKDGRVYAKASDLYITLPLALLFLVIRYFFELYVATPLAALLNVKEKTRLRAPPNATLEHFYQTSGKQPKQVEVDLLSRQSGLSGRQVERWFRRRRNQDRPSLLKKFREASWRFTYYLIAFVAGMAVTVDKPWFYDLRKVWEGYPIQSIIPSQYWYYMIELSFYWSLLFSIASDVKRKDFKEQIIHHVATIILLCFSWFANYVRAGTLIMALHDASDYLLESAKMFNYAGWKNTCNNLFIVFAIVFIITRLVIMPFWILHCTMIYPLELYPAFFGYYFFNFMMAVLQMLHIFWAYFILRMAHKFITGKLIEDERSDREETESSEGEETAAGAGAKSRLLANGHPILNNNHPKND
Procedure: Ceramide synthase assays were carried out using an HPLC-based assay with a fluorescent NBD-dihydrosphingosine substrate. All cell lines used for these assays were originally sourced from ATCC. […] Cells were sonicated in a Diagenode Bioruptor sonicating bath for 5 min, after which cell extracts were cleared by centrifugation at 800 × g for 10 min. Protein concentration in the supernatant was assayed using the bicinchoninic acid (BCA) assay, and the supernatant stored at −80 °C. COS cells were infected with lentiviral constructs expressing murine CerS1, 2, or 5, then homogenised as described above.
as §1, with “BSA. C18:0-CoA was used as the fatty acyl substrate for CerS1 and CerS4; C24:1-CoA for CerS2; and C16:0-CoA for CerS5 and CerS6. All reactions were run in triplicate.” for “BSA.”

[1] = Plasma P053 concentration after oral dosing, LC-MS/MS; type: in vivo, mice
Procedure: Plasma samples (20 μL) were extracted with 200 μL methanol containing 20 pmoles AAL(S)[27] as the internal standard. The mixtures were vortexed, then sonicated in ice water using a Bioruptor (Diagenode) for 2 min at 30 s intervals. Extracts were centrifuged at 1400 rpm for 20 min, 4 °C, to clear debris. Supernatants were transferred to 5 mL glass tubes. The remaining insoluble material was re-extracted with 1 mL 80% methanol as above, and the supernatant combined with the first extract. The extracts were evaporated under vacuum (Savant SC210 SpeedVac, Thermo Scientific). Dried extracts were reconstituted in 200 μL of 80% methanol/0.2% formic acid and stored at −20 °C. On the day of analysis, the extracts were vortexed thoroughly and centrifuged at 300 × g for 20 min before transferring 100 μL of the supernatant to glass HPLC vials.
LC-MS/MS was performed on a TSQ Quantum Access triple quadrupole mass spectrometer in positive ion mode, coupled to an Accela UPLC system (Thermo Scientific). Extracts (20 μL) were separated on a 2 × 100 mm Eclipse XDB-C8 column with 1.8 μm particle size (Agilent Technologies), using a 7.5 min binary HPLC gradient: 0 min, 70% B ([…]); 1.5 min, 70% B; 3.5 min, 95% B; 4 min, 95% B; 4.5 min, 70% B; 7.5 min 70% B. Mobile phase A: 2 mM ammonium formate/1% formic acid in water; mobile phase B: 1 mM ammonium formate/1% formic acid in methanol. The flow rate was 0.4 mL min^−1, increasing to 0.5 mL min^−1 from 5–7 min, and column oven 30 °C. […] Visualisation and quantification of peaks was performed using Thermo Fisher’s XCalibur software v2.2.

liver = test: Mitochondrial markers in liver (Western blots, citrate synthase, βHAD); set-up: species or system mice; conditions: mouse, in vivo
Procedure: Tissues were homogenized in RIPA buffer (100 mM NaCl, 10 mM Tris, pH 7.4, 1% Triton X-100, 0.5% sodium deoxycholate, 0.1% SDS, 1 mM EDTA, 10% Glycerol) containing complete protease inhibitor cocktail (Roche) and phosphatase inhibitors (3 mM β-glycerophosphate, 1 mM sodium orthovanadate, 5 mM sodium fluoride) by bead-beating in a Precellys 24 at 4 °C. Extracts were centrifuged at 6500 rpm for 10 min at 4 °C. Supernatant was collected and protein concentrations determined with the Bicinchoninic acid (BCA) assay (Thermo Scientific). […] All antibodies were used at a dilution of 1:1000. A common loading control was included on every gel to account for variation in relative band intensities between different blots. Antibody-antigen binding was detected using ECL Reagent (GE Healthcare) and imaged on a Fujifilm Las-4000 CCD camera. Bands were quantified by densitometry with Fuji ImageQuantTL software.
Liver and tibialis muscle were homogenized 1:19 (w/v) in 50 mM Tris-HCl, 1 mM EDTA, 0.1% Triton X-100, pH 7.4. The homogenates were subjected to three freeze-thaw cycles and centrifuged for 10 min at 7000 × g at 4 °C. Supernatants were used to determine the activity of CS and βHAD[66].

PPAR alpha = test: PMP70 protein expression in liver lysates (PPAR alpha agonism); type: in vivo, mice
Source text: For PPAR alpha we have examined the protein expression of
PMP70 (an abundant peroxisomal m embrane protein) in liver lysates, as PPAR alpha is much more
highly expressed in liver and we have clear evidence (Supplementary Fig 6) that P053 distributes
into liver at levels that are higher that those present in skeletal muscle.
treated with a known PPAR alpha agonist WY14643 (WY) vs. vehicle (veh) controls shown on the
right of the gel as positive controls.

T1 sequence (P27545 whole entry): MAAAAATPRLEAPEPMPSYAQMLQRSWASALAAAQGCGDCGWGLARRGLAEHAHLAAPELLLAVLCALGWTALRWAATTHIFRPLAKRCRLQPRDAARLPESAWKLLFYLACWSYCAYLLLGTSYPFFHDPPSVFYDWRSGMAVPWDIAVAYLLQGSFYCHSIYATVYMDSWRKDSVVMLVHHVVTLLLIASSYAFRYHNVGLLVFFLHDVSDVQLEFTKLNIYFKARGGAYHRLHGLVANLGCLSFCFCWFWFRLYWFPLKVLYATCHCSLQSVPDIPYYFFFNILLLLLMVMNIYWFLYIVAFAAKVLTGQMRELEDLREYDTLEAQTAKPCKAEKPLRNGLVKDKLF

SMILES	IC50 (murine CerS1) [µM]	IC50 (murine CerS2) [µM]	concentration at 6 weeks ([1]; C57BL6/J, mouse, plasma, oral, 5 mg/kg/day for 6 weeks) [nM]	half-life ([1]; C57BL6/J, mouse, plasma, single 5 mg/kg dose by oral gavage) [h]	Tmax ([1]; C57BL6/J, mouse, plasma, single 5 mg/kg dose by oral gavage, read-out: time of maximal plasma concentration) [h]	maximal plasma concentration ([1]; single 5 mg/kg dose by oral gavage) [nM]	mitochondrial markers in liver (liver)	expression of PMP70 (PPAR alpha)
CCCCCCCCc1ccc(CCC(N)(CO)CO)cc1 [FTY720, reference compound]	5.6 ± 0.05	10.6 ± 0.13						
C[C@@](N)(CO)CCc1ccc(OCc2ccc(Cl)c(Cl)c2)cc1 [P053, (S)-2-amino-4-(4-(3,4-dichlorobenzyloxy)phenyl)-2-methylbutan-1-ol]	0.46 ± 0.08	18.5 ± 0.12	~300	28	4	20	no increase	unaffected
